{
  "source": "patent US9636418B2",
  "about": "(priority 2013, dated 2017)",
  "key": {"[1]": {"assay": "in vitro", "details": "human, plasma"}, "[2]": {"details": "human plasma, 37° C., incubation 0 hr"}, "[3]": {"details": "cyno plasma, 37° C., incubation 0 hr"}, "[4]": {"assay": "in vitro", "details": "monkey, plasma"}, "[5]": {"test_system": "TTX-sensitive Nav channels in mouse DRG neuron", "format": "cell-based", "details": "for 1.x/1.7, partially inactivated: mTTX-S vs hNav1.7, partially inactivated"}, "[6]": {"target": "T1, hNav1.7 (Homo sapiens, UniProt Q15858)", "assay": "cell-based", "format": "cell-based", "details": "for block of hNav1.7 current: 100 pM peptide; for 1.x/1.7, fully non-inactivated: hNav1.7 vs hNav1.7, fully non-inactivated; for 1.x/1.7, partially inactivated: hNav1.7 vs hNav1.7, partially inactivated"}, "[7]": {"target": "T2, hNav1.5 (Homo sapiens, UniProt Q14524)", "T2 sequence (Q14524 whole entry)": "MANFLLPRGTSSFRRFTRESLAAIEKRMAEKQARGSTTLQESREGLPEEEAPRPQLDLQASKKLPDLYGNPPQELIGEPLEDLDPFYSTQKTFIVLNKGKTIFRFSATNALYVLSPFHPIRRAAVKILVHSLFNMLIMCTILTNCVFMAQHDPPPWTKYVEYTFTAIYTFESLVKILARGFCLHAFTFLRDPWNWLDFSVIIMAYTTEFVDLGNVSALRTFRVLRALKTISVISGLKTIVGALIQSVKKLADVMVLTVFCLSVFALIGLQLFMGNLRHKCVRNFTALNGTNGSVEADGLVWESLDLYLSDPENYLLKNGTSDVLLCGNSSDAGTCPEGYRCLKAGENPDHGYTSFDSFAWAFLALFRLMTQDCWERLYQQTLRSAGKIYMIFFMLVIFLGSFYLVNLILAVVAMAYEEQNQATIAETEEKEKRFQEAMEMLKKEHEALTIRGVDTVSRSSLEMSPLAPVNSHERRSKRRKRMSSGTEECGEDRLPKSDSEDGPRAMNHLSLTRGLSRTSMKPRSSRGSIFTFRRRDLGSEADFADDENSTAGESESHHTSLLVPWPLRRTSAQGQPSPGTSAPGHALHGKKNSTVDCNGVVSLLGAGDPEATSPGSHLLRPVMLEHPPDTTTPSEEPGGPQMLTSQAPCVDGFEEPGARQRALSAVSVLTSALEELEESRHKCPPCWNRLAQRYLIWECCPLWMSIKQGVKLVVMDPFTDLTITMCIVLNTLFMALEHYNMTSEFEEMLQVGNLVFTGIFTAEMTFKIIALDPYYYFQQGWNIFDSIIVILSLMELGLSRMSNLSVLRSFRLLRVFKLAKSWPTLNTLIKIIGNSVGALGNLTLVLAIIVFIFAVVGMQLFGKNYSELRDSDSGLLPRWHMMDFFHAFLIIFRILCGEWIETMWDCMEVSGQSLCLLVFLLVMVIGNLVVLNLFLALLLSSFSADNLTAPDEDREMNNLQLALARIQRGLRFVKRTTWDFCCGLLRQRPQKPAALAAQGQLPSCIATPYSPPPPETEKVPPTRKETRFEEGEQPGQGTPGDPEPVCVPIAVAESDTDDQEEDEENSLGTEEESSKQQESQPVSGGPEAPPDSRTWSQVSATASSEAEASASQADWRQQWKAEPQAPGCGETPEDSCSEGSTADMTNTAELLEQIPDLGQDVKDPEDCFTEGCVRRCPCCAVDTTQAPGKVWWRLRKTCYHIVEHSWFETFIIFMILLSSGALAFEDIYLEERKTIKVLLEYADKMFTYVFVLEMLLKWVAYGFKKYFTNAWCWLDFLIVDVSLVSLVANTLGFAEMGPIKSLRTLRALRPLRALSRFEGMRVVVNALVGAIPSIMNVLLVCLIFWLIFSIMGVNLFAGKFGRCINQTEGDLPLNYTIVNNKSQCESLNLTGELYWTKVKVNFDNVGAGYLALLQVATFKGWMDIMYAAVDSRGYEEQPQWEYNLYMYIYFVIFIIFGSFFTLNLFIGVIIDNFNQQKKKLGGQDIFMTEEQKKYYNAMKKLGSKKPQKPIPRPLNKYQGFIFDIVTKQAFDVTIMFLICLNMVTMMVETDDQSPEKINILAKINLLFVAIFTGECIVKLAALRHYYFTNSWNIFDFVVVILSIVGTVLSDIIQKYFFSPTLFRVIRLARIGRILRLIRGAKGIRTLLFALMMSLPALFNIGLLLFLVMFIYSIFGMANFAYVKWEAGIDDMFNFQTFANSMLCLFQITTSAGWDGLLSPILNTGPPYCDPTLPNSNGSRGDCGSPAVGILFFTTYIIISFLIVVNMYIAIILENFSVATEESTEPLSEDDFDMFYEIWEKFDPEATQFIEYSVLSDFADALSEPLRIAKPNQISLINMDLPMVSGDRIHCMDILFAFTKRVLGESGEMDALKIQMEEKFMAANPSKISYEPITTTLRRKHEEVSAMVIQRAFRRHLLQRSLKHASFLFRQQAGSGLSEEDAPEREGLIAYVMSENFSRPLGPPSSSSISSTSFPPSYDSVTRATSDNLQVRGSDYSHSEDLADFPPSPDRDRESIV", "assay": "cell-based", "details": "PatchXpress; * = at high concentrations compound would wash off slowly or not at all; read-out: PX hNav1.5 Tonic IC50"}, "[8]": {"target": "T2, hNav1.5", "assay": "cell-based", "format": "cell-based"}, "[9]": {"target": "T2, hNav1.5", "assay": "cell-based", "details": "IonWorks Quattro; read-out: IC50 Nav1.5"}, "[10]": {"target": "hNav1.8 (Homo sapiens, UniProt Q9Y5Y9)", "assay": "cell-based", "format": "cell-based", "details": "WCPC, n=2"}, "[11]": {"test_system": "hNav1.8", "assay": "cell-based", "format": "cell-based, human"}, "[12]": {"target": "T3, hNav1.4 (Homo sapiens, UniProt P35499)", "T3 sequence (P35499 whole entry)": "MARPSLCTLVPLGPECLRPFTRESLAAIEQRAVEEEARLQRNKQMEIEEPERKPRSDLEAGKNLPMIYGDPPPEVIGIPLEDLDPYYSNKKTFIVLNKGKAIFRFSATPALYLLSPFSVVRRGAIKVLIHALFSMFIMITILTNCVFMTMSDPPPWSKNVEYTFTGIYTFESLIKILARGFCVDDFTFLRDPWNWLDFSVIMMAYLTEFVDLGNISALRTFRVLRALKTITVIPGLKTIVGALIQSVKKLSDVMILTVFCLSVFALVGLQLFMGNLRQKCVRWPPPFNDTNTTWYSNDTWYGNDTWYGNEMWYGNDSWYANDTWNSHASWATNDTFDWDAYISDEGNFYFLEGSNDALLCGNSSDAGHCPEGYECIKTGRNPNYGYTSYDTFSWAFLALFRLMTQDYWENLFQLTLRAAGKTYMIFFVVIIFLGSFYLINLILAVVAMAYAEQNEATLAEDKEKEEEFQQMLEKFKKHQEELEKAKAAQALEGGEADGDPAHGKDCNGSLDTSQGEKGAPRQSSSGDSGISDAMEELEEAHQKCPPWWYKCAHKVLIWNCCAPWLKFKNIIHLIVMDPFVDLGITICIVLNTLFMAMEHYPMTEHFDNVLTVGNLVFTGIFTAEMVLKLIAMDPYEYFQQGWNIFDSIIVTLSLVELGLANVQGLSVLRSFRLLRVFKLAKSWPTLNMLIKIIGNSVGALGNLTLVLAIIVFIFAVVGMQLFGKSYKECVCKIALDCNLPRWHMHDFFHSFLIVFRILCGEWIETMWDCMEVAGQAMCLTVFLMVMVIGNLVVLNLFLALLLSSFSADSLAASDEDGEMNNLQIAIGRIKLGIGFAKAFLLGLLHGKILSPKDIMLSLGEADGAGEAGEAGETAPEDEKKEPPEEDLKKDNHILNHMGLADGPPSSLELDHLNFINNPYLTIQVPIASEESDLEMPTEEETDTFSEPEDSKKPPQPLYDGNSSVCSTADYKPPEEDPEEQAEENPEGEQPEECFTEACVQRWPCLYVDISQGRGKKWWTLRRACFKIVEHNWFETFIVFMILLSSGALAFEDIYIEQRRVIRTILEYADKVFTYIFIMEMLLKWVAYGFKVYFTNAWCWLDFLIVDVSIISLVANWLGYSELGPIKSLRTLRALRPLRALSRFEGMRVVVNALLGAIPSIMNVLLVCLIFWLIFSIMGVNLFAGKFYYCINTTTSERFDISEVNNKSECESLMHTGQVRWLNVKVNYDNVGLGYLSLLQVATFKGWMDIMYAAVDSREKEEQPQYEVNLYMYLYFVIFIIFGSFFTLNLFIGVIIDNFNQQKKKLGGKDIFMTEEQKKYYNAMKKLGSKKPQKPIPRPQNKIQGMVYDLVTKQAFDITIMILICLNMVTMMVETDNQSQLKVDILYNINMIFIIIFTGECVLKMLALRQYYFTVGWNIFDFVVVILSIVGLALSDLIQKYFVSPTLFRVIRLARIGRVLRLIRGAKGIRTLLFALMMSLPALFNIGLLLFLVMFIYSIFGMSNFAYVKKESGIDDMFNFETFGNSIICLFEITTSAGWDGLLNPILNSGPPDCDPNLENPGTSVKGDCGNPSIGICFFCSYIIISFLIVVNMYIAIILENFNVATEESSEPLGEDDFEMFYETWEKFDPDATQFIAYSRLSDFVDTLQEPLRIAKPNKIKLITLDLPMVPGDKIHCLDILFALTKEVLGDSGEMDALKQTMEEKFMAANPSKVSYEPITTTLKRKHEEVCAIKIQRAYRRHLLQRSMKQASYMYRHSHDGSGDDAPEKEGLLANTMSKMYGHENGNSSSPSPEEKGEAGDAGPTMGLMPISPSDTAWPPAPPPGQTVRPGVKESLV", "format": "cell-based"}, "[13]": {"target": "hNav1.3 (Homo sapiens, UniProt Q9NY46)", "format": "cell-based"}, "[14]": {"target": "T1, hNav1.7", "assay": "cell-based", "details": "IonWorks Quattro; read-out: IC50 Nav1.7"}, "[15]": {"target": "T3, hNav1.4", "assay": "cell-based", "details": "PatchXpress; * = at high concentrations compound would wash off slowly or not at all; read-out: PX hNav1.4 Tonic IC50"}, "[16]": {"test_system": "male CD-1 mice", "details": "mouse, in vivo"}, "[17]": {"test_system": "male Sprague-Dawley rats", "format": "in vivo, rat", "details": "rat, in vivo"}, "[18]": {"test_system": "male CD-1 mice", "details": "mouse, in vivo", "remark": "listed apart in the source"}},
  "note": "Values joined by “and” are separate entries in the source; they are usually repeats but may differ in a detail not shown here. Identical values can stand only once. “Also recorded” adds a separate entry of the source. Like-named read-outs stand apart in the source and are kept apart here.",
  "data": [
    {"smiles": "CC[C@H](C)[C@H](NC(=O)[C@H](CO)NC(=O)[C@H](CCCCN)NC(=O)[C@H](CCCNC(=N)N)NC(=O)[C@@H]1CSSC[C@@H]2NC(=O)[C@H](C)NC(=O)[C@H](CCCNC(=N)N)NC(=O)[C@H](CCCCN)NC(=O)[C@H](CO)NC(=O)[C@H](CC(=O)O)NC(=O)[C@@H]3CSSC[C@H](NC(=O)[C@H](CCC(=O)O)NC(=O)[C@H](CC(C)C)NC(=O)CNC(=O)[C@H](CCC(=O)O)NC(=O)[C@H](CSSC[C@H](NC(=O)[C@@H](N)Cc4ccc(O)cc4)C(=O)N[C@@H](CCC(N)=O)C(=O)N[C@@H](CCCCN)C(=O)N[C@@H](Cc4c[nH]c5ccccc45)C(=O)N[C@@H](CCSC)C(=O)N[C@@H](Cc4c[nH]c5ccccc45)C(=O)N[C@@H]([C@@H](C)O)C(=O)N3)NC2=O)C(=O)N[C@@H](CCCCN)C(=O)N[C@@H](CC(C)C)C(=O)N[C@@H](Cc2c[nH]c3ccccc23)C(=O)N1)C(N)=O", "note": "[SEQ ID NO: 138, [Glu20;Ser28]JzTx-V(1-29)]", "values": [
      {"measurement": "remaining at 2 h", "setting": "[1]", "result": 86, "unit": "%"},
      {"measurement": "remaining at 4 h", "setting": "[1]", "result": 82, "unit": "%"},
      {"measurement": "remaining at 6 h", "setting": "[1]", "result": 72, "unit": "%"},
      {"measurement": "remaining at 8 h", "setting": "[1]", "result": 68, "unit": "%"},
      {"measurement": "remaining at 24 h", "setting": "[1]", "result": 49, "unit": "%"},
      {"measurement": "% Peptide Remaining", "setting": "[2]", "result": 100, "unit": "%"},
      {"measurement": "% Peptide Remaining", "setting": "[3]", "result": 100, "unit": "%"},
      {"measurement": "remaining at 2 h", "setting": "[4]", "result": 78, "unit": "%"},
      {"measurement": "remaining at 4 h", "setting": "[4]", "result": 75, "unit": "%"},
      {"measurement": "remaining at 6 h", "setting": "[4]", "result": 69, "unit": "%"},
      {"measurement": "remaining at 8 h", "setting": "[4]", "result": 62, "unit": "%"},
      {"measurement": "remaining at 24 h", "setting": "[4]", "result": 59, "unit": "%"}
    ]},
    {"smiles": "C#CC[C@H](N)C(=O)N[C@@H](Cc1ccc(O)cc1)C(=O)N[C@H]1CSSC[C@@H]2NC(=O)[C@@H]3CSSC[C@@H](C(=O)N[C@@H](CCCNC(=N)N)C(=O)N[C@@H](CCCCN)C(=O)N[C@H](C(=O)N[C@H](C(N)=O)[C@@H](C)CC)[C@@H](C)CC)NC(=O)[C@H](Cc4c[nH]c5ccccc45)NC(=O)[C@H](CC(C)C)NC(=O)[C@H](CCCCN)NC(=O)[C@H](CSSC[C@H](NC(=O)[C@H]([C@@H](C)O)NC(=O)[C@H](Cc4c[nH]c5ccccc45)NC(=O)[C@H](CCCC)NC(=O)[C@H](Cc4c[nH]c5ccccc45)NC(=O)[C@H](CCCCN)NC(=O)[C@H](CCC(N)=O)NC1=O)C(=O)N[C@@H](CC(=O)O)C(=O)N[C@@H](CO)C(=O)N[C@@H](CCCCN)C(=O)N[C@@H](CCCNC(=N)N)C(=O)N[C@@H](C)C(=O)N3)NC(=O)[C@H](CCCNC(=N)N)NC(=O)[C@H](CC(C)C)NC(=O)CNC(=O)[C@H](CCC(=O)O)NC2=O", "note": "[SEQ ID NO: 425, Pra-[Nle6]JzTx-V]", "values": [
      {"measurement": "block of TTX-sensitive Nav current", "setting": "[5]", "result": "blocked most TTX-sensitive Nav current"},
      {"measurement": "inhibition of TTX-sensitive sodium current", "setting": "[5]; 1 nM peptide (as printed in text), mouse DRG neurons", "result": "almost complete inhibition"},
      {"measurement": "potency relative to JzTx-V (more potent)", "setting": "[5]; TTX-sensitive current, mouse DRG neurons", "result": "about 3 fold"},
      {"measurement": "block of hNav1.7 current", "setting": "[6]; held at −77 mV (partially inactivated state)", "result": "fully blocked Nav1.7 current; also recorded: complete inhibition"},
      {"measurement": "block of hNav1.7 current", "setting": "[6]; held at −140 mV (fully non-inactivated state)", "result": "fully blocked Nav1.7 current; also recorded: complete inhibition"}
    ]},
    {"smiles": "NC1=N[C@H](O)[C@H]2[C@H]3O[C@]4(O)O[C@@H]([C@@H](O)[C@@]2(N1)[C@@H]4O)[C@]3(O)CO", "note": "[TTX, tetrodotoxin, reference compound]", "values": [
      {"measurement": "block of TTX-sensitive Nav current", "setting": "[5]", "result": "completely blocked TTX-sensitive Nav current"}
    ]},
    {"smiles": "CC[C@H](C)[C@H](NC(=O)[C@@H](NC(=O)[C@H](CCCCN)NC(=O)[C@H](CCCNC(=N)N)NC(=O)[C@@H]1CSSC[C@@H]2NC(=O)[C@H](C)NC(=O)[C@H](CCCNC(=N)N)NC(=O)[C@H](CCCCN)NC(=O)[C@H](CO)NC(=O)[C@H](CC(=O)O)NC(=O)[C@@H]3CSSC[C@H](NC(=O)[C@H](CCCNC(=N)N)NC(=O)[C@H](CC(C)C)NC(=O)CNC(=O)[C@H](CCC(=O)O)NC(=O)[C@H](CSSC[C@H](NC(=O)[C@@H](N)Cc4ccc(O)cc4)C(=O)N[C@@H](CCC(N)=O)C(=O)N[C@@H](CCCCN)C(=O)N[C@@H](Cc4c[nH]c5ccccc45)C(=O)N[C@@H](CCSC)C(=O)N[C@@H](Cc4c[nH]c5ccccc45)C(=O)N[C@@H]([C@@H](C)O)C(=O)N3)NC2=O)C(=O)N[C@@H](CCCCN)C(=O)N[C@@H](CC(C)C)C(=O)N[C@@H](Cc2c[nH]c3ccccc23)C(=O)N1)[C@@H](C)CC)C(N)=O", "note": "[compound 2]", "values": [
      {"measurement": "IC50", "setting": "[7]", "result": "1600 nM and 2210 nM and 3250 nM"},
      {"measurement": "1.x/1.7, fully non-inactivated", "setting": "[5]; mTTX-S vs hNav1.7, fully non-inactivated", "result": 530},
      {"measurement": "1.x/1.7, partially inactivated", "setting": "[5]", "result": 111},
      {"measurement": "IC50", "setting": "[8]; WCPC, hNav1.5, fully non-inactivated, n=2", "result": 882, "unit": "nM"},
      {"measurement": "1.x/1.7, fully non-inactivated", "setting": "[8]; hNav1.5 vs hNav1.7, fully non-inactivated", "result": 6230},
      {"measurement": "1.x/1.7, partially inactivated", "setting": "[8]; hNav1.5 vs hNav1.7, partially inactivated", "result": 2641},
      {"measurement": "IC50", "setting": "[9]", "result": "7200 nM and > 7000 nM"},
      {"measurement": "IC50", "setting": "[10]; hNav1.8, fully non-inactivated, read-out: Mean IC50, fully non-inactivated", "result": 810, "unit": "nM"},
      {"measurement": "IC50", "setting": "[10]; hNav1.8, partially inactivated, read-out: Mean IC50, partially inactivated", "result": 530, "unit": "nM"},
      {"measurement": "1.x/1.7, fully non-inactivated", "setting": "[11]; hNav1.8 vs hNav1.7, fully non-inactivated", "result": 5724},
      {"measurement": "1.x/1.7, partially inactivated", "setting": "[11]; hNav1.8 vs hNav1.7, partially inactivated", "result": 3282},
      {"measurement": "1.x/1.7, fully non-inactivated", "setting": "[12]; hNav1.4 vs hNav1.7, fully non-inactivated", "result": 75},
      {"measurement": "1.x/1.7, partially inactivated", "setting": "[12]; hNav1.4 vs hNav1.7, partially inactivated", "result": 58},
      {"measurement": "1.x/1.7, fully non-inactivated", "setting": "[6]", "result": 1},
      {"measurement": "1.x/1.7, partially inactivated", "setting": "[6]", "result": 1},
      {"measurement": "1.x/1.7, fully non-inactivated", "setting": "[13]; hNav1.3 vs hNav1.7, fully non-inactivated", "result": 99},
      {"measurement": "1.x/1.7, partially inactivated", "setting": "[13]; hNav1.3 vs hNav1.7, partially inactivated", "result": 76}
    ]},
    {"smiles": "C#CC[C@H](N)C(=O)N[C@@H](Cc1ccc(O)cc1)C(=O)N[C@H]1CSSC[C@@H]2NC(=O)[C@@H]3CSSC[C@@H](C(=O)N[C@@H](CCCNC(=N)N)C(=O)N[C@@H](CCCCN)C(=O)N[C@H](C(=O)N[C@H](C(N)=O)[C@@H](C)CC)[C@@H](C)CC)NC(=O)[C@H](Cc4c[nH]c5ccccc45)NC(=O)[C@H](CC(C)C)NC(=O)[C@H](CCCCN)NC(=O)[C@H](CSSC[C@H](NC(=O)[C@H]([C@@H](C)O)NC(=O)[C@H](Cc4c[nH]c5ccccc45)NC(=O)[C@H](CCCC)NC(=O)[C@H](Cc4c[nH]c5ccccc45)NC(=O)[C@H](CCCCN)NC(=O)[C@H](CCC(N)=O)NC1=O)C(=O)N[C@@H](CC(=O)O)C(=O)N[C@@H](CO)C(=O)N[C@@H](CCCCN)C(=O)N[C@@H](CCCNC(=N)N)C(=O)N[C@@H](C)C(=O)N3)NC(=O)[C@H](CCCNC(=N)N)NC(=O)[C@H](CC(C)C)NC(=O)CNC(=O)[C@H](CCC(=O)O)NC2=O", "note": "[compound 425]", "values": [
      {"measurement": "IC50", "setting": "[7]", "result": "970 nM and 700 nM"},
      {"measurement": "1.x/1.7, partially inactivated", "setting": "[5]", "result": 6335},
      {"measurement": "IC50", "setting": "[14]", "result": "8 nM and 13 nM"},
      {"measurement": "IC50", "setting": "[15]", "result": "4 nM and 2.5 nM"},
      {"measurement": "1.x/1.7, fully non-inactivated", "setting": "[6]", "result": 1},
      {"measurement": "1.x/1.7, partially inactivated", "setting": "[6]", "result": 1}
    ]},
    {"smiles": "Cc1cccc(C)c1OCC(C)N", "note": "(centres unmarked) [mexilitine, reference compound]", "values": [
      {"measurement": "thermal latency / thermal hyperalgesia", "setting": "[16]", "result": "significantly reverse thermal hyperalgesia"}
    ]},
    {"smiles": "CN1CC[C@]23c4c5ccc(O)c4O[C@H]2[C@@H](O)C=C[C@H]3[C@H]1C5", "note": "[morphine]", "values": [
      {"measurement": "formalin response, second phase (5-40 min)", "setting": "[17]", "result": "significantly reduce pain response; also recorded: significantly reduced"},
      {"measurement": "time spent lifting and/or licking the affected paw, second phase (5-40 min)", "setting": "[18]", "result": "significantly reduce pain response; also recorded: significantly reduced the pain response; also recorded: did significantly reduce"}
    ]}
  ]
}
